# Test results reported in patent US10487054B2, “Therapeutic compounds” (REGENTS OF THE UNIVERSITY OF MINNESOTA, priority 2017, dated 2019).
# Key:
# SKH-1 hairless mice = assay: SUV-induced mouse skin tumorigenesis, early-stage prevention model; type: in vivo
# Experimental: Tumor volume was calculated according to the following formula: tumor volume (mm^3)=length×width×height×0.52. […] For 4B and 4C, data are represented as mean values±S.D. and significant differences were determined by one-way ANOVA. The asterisk (*) indicates a significant decrease compared to the SUV only or the vehicle and SUV-treated groups (***, p<0.001). […] Dorsal trunk skin samples were harvested and stained with H&E (left panels) or with an antibody to detect PCNA (right panels). […] Expression of PCNA was quantified using Image-Pro Plus software and stained cells were counted from 5 separate areas on each slide (lower panel). An average of 3 samples was calculated per group. Data are expressed as mean percent of control±S.D. and the asterisks indicate a significant difference in PCNA expression (***, p<0.001). […] The expression levels of phosphorylated and total proteins were analyzed by Western blot.
# Mice were weighed once a week until the end of the study at week 28. […] SKH-1 hairless mice were treated as described in Materials and Methods. The mice in the control groups (n=9) received no vehicle/no SUV (n=3), vehicle/no SUV (n=3), or 1 mg […]/no SUV (n=3), respectively. The mice in the SUV treated group received SUV only (n=12) and the mice in the vehicle/SUV-treated group (n=12) were treated with oil-in-water emulsion cream before SUV exposure. The mice in the 0.1 mg/SUV or 1 mg/SUV groups (n=12 each) received treatment with compound 1 (0.1 or 1 mg, respectively) before SUV exposure. The frequency of irradiation was set at 3 times a week for 15 weeks. The respective doses of oil-in-water emulsion cream or compound 1 were applied topically to the dorsal area. Tumor incidence and multiplicity were recorded weekly until the end of the experiment at week 28.
# Female SKH-1 hairless mice were purchased from Charles River and were acclimated for 2 weeks before the study and had free access to food and water. All animals were maintained according to the guidelines approved by the University of Minnesota Institutional Animal Care and Use Committee (IACUC). The animals were housed in climate-controlled quarters with a 12-h light/dark cycle. The skin carcinogenesis experiments were conducted using 6-8 wk old mice with a mean body weight of 25 g. Skin carcinogenesis was induced by a solar simulated ultraviolet irradiation system. The SUV irradiation source (Q-Lab Corporation, Westlake, Ohio) emitted at wavelengths of 295 to 365 nm and the peak emission was 340 nm.
# The two mouse models included an early-stage prevention model and a late-stage prevention model. These models were designed for detecting either the respective chemopreventive effect or the potential therapeutic value of compound 1 against SUV-induced skin damage and carcinogenesis. For the early-stage prevention study, SKH-1 mice were divided into 7 groups and an oil-in-water emulsion cream was applied topically as the vehicle with or without compound 1. The three control groups included 1) mice (n=3) not treated with vehicle or SUV; 2) mice (n=3) treated with vehicle but no SUV; and 3) mice (n=3) treated with 1 mg compound 1 in vehicle but not exposed to SUV. Experimental groups included 1) mice (n=12) treated with SUV only; 2) mice (n=12) treated with vehicle followed by SUV 1 h later; 3) mice (n=12 each group) treated with topical application of 0.1 or 1 mg of compound 1 in vehicle 1 h before SUV irradiation. The topical applications and SUV treatment were applied 3 times a week for a total of 15 weeks. At 15 weeks, SUV irradiation was discontinued and topical applications continued with tumor growth monitoring for an additional 13 weeks until week 28 at which time mice were euthanized and tissues harvested.
# At week 1, mice were irradiated with SUV at a dose of 36 kJ/m^2 UVA and 1.8 kJ/m^2 UVB. At week 6, the dose of SUV reached 60 kJ/m^2 UVA and 2.9 kJ/m^2 UVB and this dose was maintained from week 6 to week 15. […]
# A431 cells = assay: Western blot of TOPK downstream signaling; type: cell-based, human
# Experimental: (§1) The cells were cultured, treated for 4 h with different concentrations of compound 1 and then exposed to SUV (60 kJ UVA/m^2 and 2.9 kJ UVB/m^2), followed by an additional 15-minute incubation. Cells were harvested and the levels of phosphorylated and total proteins were determined by Western blot analysis with specific antibodies as indicated. […] The cells were cultured and treated with different concentrations of compound 1 for 24 h. Cells were harvested and the levels of phosphorylated and total proteins were determined by Western blot analysis with specific antibodies as indicated. […] For the luciferase assay, JB6 P+ cells stably transfected with an AP-1 luciferase reporter plasmid were cultured. After starvation for 24 h, cells were treated for 1 h with compound 1 (0, 1.25, 2.5, or 5 μM). Cells were then exposed to SUV (60 kJ UVA/m^2 and 2.9 kJ UVB/m^2) and harvested 3 h later. Luciferase activity was measured and AP-1 activity is expressed relative to control cells without SUV treatment. […] Knockdown of TOPK in A431 cell line (left). Stable control or TOPK knockdown cells were co-transfected with 100 ng of the AP-1 luciferase reporter plasmid and 50 ng of internal control […] plasmid. Cells were transfected using iMFectin poly DNA transfection reagent (GenDEPOT) according to the manufacturer's instructions. After 12 h of transfection, cells were incubated with the different concentrations of compound 1 for another 24 h. Luciferase and […] activities were measured using reagents included in the reporter assay system (right). Data are shown as mean values±S.D obtained from triplicate experiments. Significant differences were evaluated using one-way ANOVA and the asterisks (*) indicate a significant effect (*, p<0.05; **, p<0.001; ***, p<0.0001).
# (§2) HaCaT or JB6 P+ cells (1×10^6) were cultured in 10-cm dishes for 24 h and then the medium was replaced with 0.1% FBS medium for 24 h. Cells were then treated with different concentrations of compound 1 for 4 h followed by exposure to SUV (60 kJ UVA/m^2 and 2.9 kJ UVB/m^2). After SUV, cells were incubated for 15 min at 37° C. in a 5% CO2 humidified incubator. SCC12 and A431 cells (1.5×10^6) were cultured in 10-cm dishes overnight and then starved for 24 h. Cells were then treated with different concentrations of compound 1 for an additional 24 h. Protein concentration in cell lysates was determined using a protein assay kit (Bio-Rad Laboratories, Hercules, Calif.). Equal amounts of proteins were resolved by SDS-PAGE and then transferred onto polyvinylidene difluoride (PVDF) membranes (EMD Millipore Corp., Billerica, Mass.) and membranes were blocked with 5% nonfat milk for 1 h at room temperature. […]
# SCC12 cells = assay: Western blot of TOPK downstream signaling; type: cell-based, human
# Experimental: as §1, §2
compound,measurement,setting,value
"O=C1Nc2ccc(C34CC5CC(CC(C5)C3)C4)cc2C1=NO [compound 1, 5-(adamantan-1-yl)-3-(hydroxyimino)indolin-2-one]",SUV-induced tumor volume,SKH-1 hairless mice; early-stage model (FIG. 4B),suppresses
same,SUV-induced epidermal thickness,"SKH-1 hairless mice; early-stage model, 0.1 or 1 mg, H&E",decreased
same,"SUV-induced phosphorylation of ERK1/2, p38, and JNKs in mouse skin","SKH-1 hairless mice; early-stage model, Western blot",dramatically suppressed
same,expression of PCNA,"SKH-1 hairless mice; early-stage model, immunohistochemistry of skin",decreased
same,average number of SUV-induced tumors,"SKH-1 hairless mice; early-stage model, week 28 (FIG. 4C)",suppresses
same,SUV-induced papilloma formation,"SKH-1 hairless mice; early-stage prevention group, topical 0.1 or 1 mg",total inhibition
same,body weight,"SKH-1 hairless mice; topical application on dorsal skin, early-stage model, to week 28",no effect on body weight
same,phosphorylated c-Jun protein levels,A431 cells,blocked dose-dependently
same,"phosphorylation of ERK1/2, p38, and JNKs","A431 cells; 24 h, dose-dependently",blocked
same,phosphorylated c-Jun protein levels,SCC12 cells,blocked dose-dependently
same,"phosphorylation of ERK1/2, p38, and JNKs","SCC12 cells; 24 h, dose-dependently",blocked
